Consider two molecules from patent US20240299385A1 (ReWind Therapeutics NV, priority 2021, published 2024).

pIC50: −log10 of the molar value.

One experiment has as its target T1, human GPR17 receptor (Homo sapiens, UniProt Q13304).
T1 construct: host or cells: HEK-293
In words: Calcium mobilization functional assay (Fluo-8, FLIPR TETRA) in HEK-293 hGPR17 (Gα-q assay). Type of experiment: cell-based. The conditions noted are these: antagonism of MDL29,951 (~EC80) induced Ca2+ signal; cell line (HEK-293 hGPR17 or HEK-293 Suchi5 hGPR17) not given. The procedure, abridged: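 Fluo-8-loaded HEK-293 hGPR17 cells (60 min dye loading, room temperature) were preincubated with compound for twenty minutes, then challenged with agonist MDL29,951 at ~EC80, 500 nM. Intracellular calcium release via Gα-q was recorded as FLIPR fluorescence for a further 2 minutes; compounds tested in duplicate.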
(A change in cytosolic calcium serves as a functional read-out for many receptors and channels.)

In the next experiment the test system is NMDA receptor. Particulars: selectivity, background statement; cited from earlier work.

T1 sequence (Q13304 whole entry): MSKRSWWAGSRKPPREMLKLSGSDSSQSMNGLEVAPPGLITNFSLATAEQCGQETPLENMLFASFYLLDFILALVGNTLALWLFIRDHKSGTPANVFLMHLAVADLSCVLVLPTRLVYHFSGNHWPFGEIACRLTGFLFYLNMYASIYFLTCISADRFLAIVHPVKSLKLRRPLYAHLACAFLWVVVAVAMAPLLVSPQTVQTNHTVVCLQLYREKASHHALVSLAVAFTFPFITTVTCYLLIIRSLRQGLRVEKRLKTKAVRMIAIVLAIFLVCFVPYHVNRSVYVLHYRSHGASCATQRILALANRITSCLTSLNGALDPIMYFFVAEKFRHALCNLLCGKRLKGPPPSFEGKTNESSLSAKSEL

In the case of `O=S(=O)(Nc1cc(F)c(C(F)(F)F)cc1F)c1c[nH]c(-c2ccoc2Cl)c1` [Cpd 669, 5-(2-chlorofuran-3-yl)-N-[2,5-difluoro-4-(trifluoromethyl)phenyl]-1H-pyrrole-3-sulfonamide], on human GPR17 receptor, the pIC50 is over 6.30.

On to `O=C(O)CCc1c(C(=O)O)[nH]c2cc(Cl)cc(Cl)c12` [MDL29,951, MDL 29,951], for which, in the experiment on NMDA receptor, the “fold more potent as an NMDA receptor antagonist than as a GPR17 activator” value is recorded as “approximately ten”.

As a reminder, the pIC50 is the negative decadic logarithm of the IC50, by convention in mol/L.
